“Also recorded” adds a separate entry of the source.
What was measured:
[1] = system: mitochondrial DNA (mtDNA) prepared from MM.1S cells; assay: Direct DNA damage, PCR amplification with mtDNA primers; type: biochemical, human; details: 0.25 μM compound, 30 minutes at 37° C.
Method: Method: DNA was prepared from MM.1S cells by QIAGEN genomic tip 20/G according to protocol described in Furda et al., Methods Mol Biol, 2012. 1 μg of DNA was treated with 0.25 μM compound for 30 minutes at 37° C. DMSO was used as control treatment. 20 ng of the treated DNA was PCR amplified using Phusion Hot Start II High Fidelity PCR Master Mix (Thermo Scientific) and primers directed to either HPRT or primers directed to mitochondrial DNA (mtDNA) was used, generating 10.4 or 8.9 kb fragments, respectively. The PCR reactions were separated on a 1% agarose gel and visualized by ChemiDoc™ MP Imaging System (BioRad). Example compounds 1, 2 and 38 were investigated, as were compounds 18 and 20, which are metabolites of compound 1. They were compared with bendamustine, melphalan and DMSO control. The results for compounds 1, 2, 18 and 20 with the HPRT primers are shown in FIG. 4(A); the results with the mtDNA primers are shown in FIG. 4(B).

[2] = system: SU-DHL-4 human lymphoma cell line xenografts; assay: Chicken embryo (in ovo) xenograft model, tumour weight; type: in vivo; details: 8.4, 33.5, 167.5 μM
Method: Methods: Inoculation of Fertilized White Leghorn eggs was performed with 3×10^6 SU-DHL-4 tumour cells on day 9 (post-fertilisation). Viable eggs were injected with 100 μL of either Example compound 1 (8.4 μM (0.008 mg/kg), 33.5 μM (0.033 mg/kg), 167.5 μM (0.164 mg/kg)), bendamustine (8.4 μM (0.005 mg/kg), 33.5 μM (0.02 mg/kg), 167.5 μM (0.1 mg/kg)) or vehicle on day 11, 13, 15 and 17. On day 18, tumours were removed and weighed.

[3] = system: hPBMC (Human Peripheral blood mononuclear cells); assay: In vitro cytotoxicity (CellTiter-Glo, 72 h) in hPBMC; type: cell-based; details: stimulated with PHA-M and IL-2
Method: All cells were cultivated in RPMI medium 1640 (IX). All media was supplemented with […] penicillin/streptomycin, 10% heat inactivated FBS, 0.1 mM Sodium Pyruvate, 1×MEM NEAA (ThermoFisher) and 1 mM HEPES. The DERL-2 cells had higher FBS (20%) and 40 ng/mL IL-2 was added. hPBMCs were thawed and allowed to acclimatise overnight and then stimulated with 10 µg/mL PHA-M and 40 ng/mL IL-2 for 4 hours before being exposed to test compounds. All cells, except for hPBMCs, were grown to reach log phase before being exposed to the test compounds.
Test compounds were dissolved in 100% DMSO and added to a 384 assay plate. Additional DMSO was added to maintain the same final DMSO concentration (0.2%) in all wells. 25 μL cell suspension with a concentration of 100000 cells/mL was added to each well. The cells were cultured in a CO2 incubator at 37° C. for 72 h. Plates were equilibrated to room temperature for 30 minutes before adding 20 μL CellTiter-Glo® 2.0 (Promega) reagent to all wells. The plate was then allowed to stabilize for 20 minutes before recording the luminescence (Em filter 700 nm) in an Envision plate reader.

How did the “DNA damage on mitochondrial DNA (8.9 kb PCR band)” value [1] turn out when `CCOC(=O)[C@H](CC(C)C)NC(=O)[C@@H](N)CCc1nc2cc(N(CCCl)CCCl)ccc2n1C` [Example compound 1, Ethyl (2S)-2-[[(2S)-2-amino-4-[5-[bis(2-chloroethyl)amino]-1-methyl-benzimidazol-2-yl]butanoyl]amino]-4-methyl-pentanoate] was run?
Its value is “strong DNA damaging effect”.

What about the “effect on tumour weight / tumour growth (in words)” value [2] of the same molecule?
Its value is “dose dependent effect on tumour weight; also recorded: particularly effective at inhibiting tumor growth”.

What about the IC50 [3] of the same molecule?
The IC50 was 5.4 nM.
